According to patent US20080255128A1, “PHTHALAZINONE DERIVATIVES” (priority 2007, published 2008):
Entries after “also recorded” stand apart in the source; their conditions may differ.

Test: Stereochemical stability of separated isomers on standing in solution
Format: physicochemical
Conditions: after separation by chiral HPLC
Description: has a chiral centre where indicated. This racemic mixture was separated using chiral preparative HPLC.
This separation was carried out on a Rainin prep machine (200 ml heads) using a Merck 100 mm 20 μm Chiralpak AD column. The Eluent was a mixture of i-hexane, ethanol and methanol (70:15:15), which was flowed at a rate of 190 ml/min. The analaysis was carried out with a wavelength of 215 nm. Complete separation of the two isomers was achieved using a sample concentration of 12.5 mg/ml, an injection volumn of 40 ml and a run time of 3 hours.

## CC1C(=O)N(c2cc(Cc3n[nH]c(=O)c4ccccc34)ccc2F)C(=O)N1CCN1CCCC1 (racemic) [Compound 9, 3-(2-fluoro-5-((4-oxo-3,4-dihydrophthalazin-1-yl)methyl)phenyl)-5-methyl-1-(2-(pyrrolidin-1-yl)ethyl)imidazolidine-2,4-dione]
  stereochemical stability in solution: epimerise on standing in solution; also recorded: racemises
